Measurements: patent publication US6407288B1, “Naphthylsalicylanilides as antimicrobial and antiinflammatory agents” (The Research Foundation of State University of New York, priority 2000, dated 2002)

What was measured:
[1] = tested on: Str.pn.R (strain 00-041-0614); assay: Sensitivity of strain to known antibiotics; format: cell-based, Streptococcus; conditions: sensitive / resistant
Description: (§1) This embodiment illustrates the efficacy of the compounds of the present invention against Streptococcus strains. One of the strains, Str.pn.R was obtained from the Children's Hospital in Buffalo (strain 00-041-0614). […] The sensitivity of this strain was tested against several known antibiotics.

[2] = tested on: staphylococcus species R (strain 00-045-1209); assay: Sensitivity of strain to known antibiotics; format: cell-based; conditions: sensitive / resistant
Description: (§2) This embodiment describes the sensitivity of various staphylococcus strains to the compounds of the present invention. The staphylococcus species R is a strain 00-045-1209 from the Children's Hospital in Buffalo. It was isolated from the peritoneal cavity (fluid culture) of an individual. It was coagulase negative. The sensitivity of this strain was tested agaisnt several known antibiotics.

S. aureus = assay: MIC microdilution, gram positive; format: cell-based, Staphlococcus aureus
Description: (§3) The MIC's for the compounds were determined by a modified microdilution tube dilution method described in “Methods for Dilution Antimicrobial Susceptibility Tests for Bacteria that Grow Aerobically” (National Committee for Clinical Laboratory Standards Approved Standards, 1997, NCCLS document M7-A4). In general the modifications were made because of the unique growth requirements for the fastidious oral organisms and for those bacteria that require anaerobic conditions. Reference is also made to “Methods for Antimicrobial Susceptibility of Anaerobic Bacteria” (National Committee for Clinical Laboratory Standards Approved Standards, 1997, NCCLS document M11-A4).
(§4) Briefly, the methods were as follows. Cultures were grown for 18-24hrs (aerobic bacteria) or 48-72 hrs (anaerobic bacteria) in the appropriate medium. For aerobic bacteria full strength brain heart infusion medium (BHI, Difco) was used. For anaerobic bacteria, half strength BHI (18.5 g/L) was supplemented by adding yeast extract (10 g/L), hemin (0.29 mL of a stock solution containing 0.1 g/200 mL dH2O) and menadione (15 mL of a stock solution containing 0.15 mL in 30 mL 95% EtOH) was used. Initial cultures were diluted to approximately 1×10^8 CFU/mL for use as an inoculum. Each assay received 10 μL of the inoculum. The drugs were prepared from a stock solution contained in dimethyl sulfoxide (DMSO) and diluted into the culture medium. Final concentrations of the drugs ranged from 50 to 0.05 μg/assay. The tests were run in duplicate and were incubated appropriately with regard to oxygen requirements for 24 to 48 hrs as required. Anaerobic incubation was an atmosphere of 5% CO2, 10% H2, with the balance N2. The lowest concentration of an antimicrobial agent at which no visible growth is noted was referred to as the MIC.
as §2

S. sanguis = assay: MIC microdilution, gram positive; format: cell-based, Streptococcus sanguis; conditions: Table 1, Gram Positive
Description: (§5) The MIC's for the compounds were determined by a modified microdilution tube dilution method described in “Methods for Dilution Antimicrobial Susceptibility Tests for Bacteria that Grow Aerobically” (National Committee for Clinical Laboratory Standards Approved Standards, 1997, NCCLS document M7-A4). In general the modifications were made because of the unique growth requirements for the fastidious oral organisms and for those bacteria that require anaerobic conditions. Reference is also made to “Methods for Antimicrobial Susceptibility of Anaerobic Bacteria” (National Committee for Clinical Laboratory Standards Approved Standards, 1997, NCCLS document M11-A4). Briefly, the methods were as follows. Cultures were grown for 18-24hrs (aerobic bacteria) or 48-72 hrs (anaerobic bacteria) in the appropriate medium. For aerobic bacteria full strength brain heart infusion medium (BHI, Difco) was used. For anaerobic bacteria, half strength BHI (18.5 g/L) was supplemented by adding yeast extract (10 g/L), hemin (0.29 mL of a stock solution containing 0.1 g/200 mL dH2O) and menadione (15 mL of a stock solution containing 0.15 mL in 30 mL 95% EtOH) was used. Initial cultures were diluted to approximately 1×10^8 CFU/mL for use as an inoculum. Each assay received 10 μL of the inoculum. The drugs were prepared from a stock solution contained in dimethyl sulfoxide (DMSO) and diluted into the culture medium. Final concentrations of the drugs ranged from 50 to 0.05 μg/assay. The tests were run in duplicate and were incubated appropriately with regard to oxygen requirements for 24 to 48 hrs as required. Anaerobic incubation was an atmosphere of 5% CO2, 10% H2, with the balance N2. The lowest concentration of an antimicrobial agent at which no visible growth is noted was referred to as the MIC.

Lact 7496 = assay: MIC microdilution, gram positive; format: cell-based, Lactobacillus rhamnosus (casei); conditions: Table 2, Gram Positive
Description: as §5

B. fragilis = assay: MIC microdilution, gram negative; format: cell-based, Bacteroides fraglis
Description: (§6) The MIC's for the compounds were determined by a modified microdilution tube dilution method described in “Methods for Dilution Antimicrobial Susceptibility Tests for Bacteria that Grow Aerobically” (National Committee for Clinical Laboratory Standards Approved Standards, 1997, NCCLS document M7-A4). In general the modifications were made because of the unique growth requirements for the fastidious oral organisms and for those bacteria that require anaerobic conditions. Reference is also made to “Methods for Antimicrobial Susceptibility of Anaerobic Bacteria” (National Committee for Clinical Laboratory Standards Approved Standards, 1997, NCCLS document M11-A4). Briefly, the methods were as follows. Cultures were grown for 18-24hrs (aerobic bacteria) or 48-72 hrs (anaerobic bacteria) in the appropriate medium. For aerobic bacteria full strength brain heart infusion medium (BHI, Difco) was used. For anaerobic bacteria, half strength BHI (18.5 g/L) was supplemented by adding yeast extract (10 g/L), hemin (0.29 mL of a stock solution containing 0.1 g/200 mL dH2O) and menadione (15 mL of a stock solution containing 0.15 mL in 30 mL 95% EtOH) was used. Initial cultures were diluted to approximately 1×10^8 CFU/mL for use as an inoculum. Each assay received 10 μL of the inoculum. The drugs were prepared from a stock solution contained in dimethyl sulfoxide (DMSO) and diluted into the culture medium. Final concentrations of the drugs ranged from 50 to 0.05 μg/assay. The tests were run in duplicate and were incubated appropriately with regard to oxygen requirements for 24 to 48 hrs as required. Anaerobic incubation was an atmosphere of 5% CO2, 10% H2, with the balance N2. The lowest concentration of an antimicrobial agent at which no visible growth is noted was referred to as the MIC. […] The method used was the same as described in Example 1.

M. luteus = assay: MIC microdilution, gram positive; format: cell-based, Micrococcus luteus; conditions: Table 2, Gram Positive
Description: as §5

S. mutans = assay: MIC microdilution, gram positive; format: cell-based, Streptococcus mutans; conditions: Table 1, Gram Positive
Description: as §5

S. species R = assay: Staphylococcus MIC; format: cell-based, staphylococcus species R; conditions: second Table 5 (Example 5); strain 00-045-1209
Description: as §3, §4, §2

P. acnes 6922 = assay: MIC microdilution, gram positive; format: cell-based, Propionibacterium acnes; conditions: Table 1, Gram Positive
Description: as §5

P. acnes 11828 = assay: MIC microdilution, gram positive; format: cell-based, Propionibacterium acnes; conditions: Table 1, Gram Positive
Description: as §5

S.salivarius = assay: MIC microdilution, gram positive; format: cell-based, Streptococcus salivarius; conditions: Table 1, Gram Positive
Description: as §5

P. ging 381 = assay: MIC microdilution, gram negative; format: cell-based, Porphyromonas gingivalis
Description: as §6

Pg 53977 = assay: MIC microdilution, gram negative; format: cell-based, Porphyromonas gingivalis
Description: as §6

Str. pn = assay: Mean Streptococcus MIC; format: cell-based; conditions: Table 5, mean
Description: as §3, §4, §1

Str. pn. R = assay: Mean Streptococcus MIC; format: cell-based; conditions: Table 5, mean; strain resistant to penicillin and erythromycin
Description: as §3, §4, §1

Fuso. 25586 = assay: MIC microdilution, gram negative; format: cell-based, Fusobacterium nucleatum
Description: as §6

Aa Y4 = assay: MIC microdilution, gram negative; format: cell-based, Actinobacillus actinomycetemcomitans
Description: as §6

A. viscosus = assay: MIC microdilution, gram positive; format: cell-based, Actinomyces viscosus; conditions: Table 2, Gram Positive
Description: as §5

[3] = Table 3 printed a second time, Gram Negative

## N[C@@H]1[C@H]2CN(c3nc4c(cc3F)c(=O)c(C(=O)O)cn4-c3ccc(F)cc3F)C[C@@H]12 [Trovoflox]
[1]
  sensitivity of strain Str.pn.R to known antibiotics: sensitive

## CO[C@H]1/C=C/O[C@@]2(C)Oc3c(C)c(O)c4c(O)c(c(/C=N/N5CCN(C)CC5)c(O)c4c3C2=O)NC(=O)/C(C)=C\C=C\[C@H](C)[C@H](O)[C@@H](C)[C@@H](O)[C@@H](C)[C@H](OC(C)=O)[C@@H]1C [Rifampin]
[1]
  sensitivity of strain Str.pn.R to known antibiotics: sensitive

## CC[C@H]1OC(=O)[C@H](C)[C@@H](O[C@H]2C[C@@](C)(OC)[C@@H](O)[C@H](C)O2)[C@H](C)[C@@H](O[C@@H]2O[C@H](C)C[C@H](N(C)C)[C@H]2O)[C@](C)(O)C[C@@H](C)CN(C)[C@H](C)[C@@H](O)[C@]1(C)O [azithromycin]
[2]
  sensitivity of staphylococcus species R to known antibiotics: resistant

## penicillin
[1]
  sensitivity of strain Str.pn.R to known antibiotics: resistant

## O=C(c1ccc(O)c(C(=O)Nc2cccc(C(F)(F)F)c2)c1)c1ccc2ccccc2c1 [NA2mF]
S. aureus; Table 2, Gram Positive
  MIC S. aureus: NE (NE indicates that the drug was not effective at a concentration >50 micrograms/ml)
S. aureus; second Table 5 (Example 5)
  MIC S. aureus: NE (NE indicates that the drug was not effective at a concentration >50 micrograms/ml)
S. sanguis
  MIC S. sanguis: 0.8 micrograms/ml
Lact 7496
  MIC Lact 7496: 1.6 micrograms/ml
B. fragilis; Table 3, Gram Negative
  MIC B. fragilis: NE (NE indicates that the drug was not effective at a concentration >50 micrograms/ml)
B. fragilis; [3]
  MIC B. fragilis: NE (NE indicates that the drug was not effective at a concentration >50 micrograms/ml)
M. luteus
  MIC M. luteus: 0.8 micrograms/ml
S. mutans
  MIC S. mutans: NE (NE indicates that the drug was not effective at a concentration >50 micrograms/ml)
S. species R
  MIC S. species R: 25.0 micrograms/ml
P. acnes 6922
  MIC P. acnes 6922: 0.4 micrograms/ml
P. acnes 11828
  MIC P. acnes 11828: 0.4 micrograms/ml
S.salivarius
  MIC S.salivarius: 50 micrograms/ml
P. ging 381; Table 3, Gram Negative
  MIC P. ging 381: <0.4 micrograms/ml
P. ging 381; [3]
  MIC P. ging 381: <0.4 micrograms/ml
Pg 53977; Table 3, Gram Negative
  MIC Pg 53977: <0.4 micrograms/ml
Pg 53977; [3]
  MIC Pg 53977: <0.4 micrograms/ml
Str. pn
  Mean Streptococcus MIC values Str. pn: 0.84 micrograms/ml
Str. pn. R
  Mean Streptococcus MIC values Str. pn. R: 0.78 micrograms/ml
Fuso. 25586; Table 3, Gram Negative
  MIC Fuso. 25586: NE (NE indicates that the drug was not effective at a concentration >50 micrograms/ml)
Fuso. 25586; [3]
  MIC Fuso. 25586: NE (NE indicates that the drug was not effective at a concentration >50 micrograms/ml)
Aa Y4; Table 3, Gram Negative
  MIC Aa Y4: NE (NE indicates that the drug was not effective at a concentration >50 micrograms/ml)
Aa Y4; [3]
  MIC Aa Y4: NE (NE indicates that the drug was not effective at a concentration >50 micrograms/ml)
A. viscosus
  MIC A. viscosus: NE (NE indicates that the drug was not effective at a concentration >50 micrograms/ml)

## CO/N=C(\C(=O)N[C@@H]1C(=O)N2C(C(=O)O)=C(COC(C)=O)CS[C@H]12)c1csc(N)n1 [cefotaxime]
[2]
  sensitivity of staphylococcus species R to known antibiotics: resistant

## Cc1onc(-c2ccccc2)c1C(=O)N[C@@H]1C(=O)N2[C@@H]1SC(C)(C)[C@@H]2C(=O)O [oxacillin]
[2]
  sensitivity of staphylococcus species R to known antibiotics: resistant

## CN[C@H](CC(C)C)C(=O)N[C@H]1C(=O)N[C@@H](CC(N)=O)C(=O)N[C@H]2C(=O)N[C@H]3C(=O)N[C@H](C(=O)N[C@H](C(=O)O)c4cc(O)cc(O)c4-c4cc3ccc4O)[C@H](O)c3ccc(c(Cl)c3)Oc3cc2cc(c3O[C@@H]2O[C@H](CO)[C@@H](O)[C@H](O)[C@H]2O[C@H]2C[C@](C)(N)[C@H](O)[C@H](C)O2)Oc2ccc(cc2Cl)[C@H]1O [Vancomycin]
[2]
  sensitivity of staphylococcus species R to known antibiotics: sensitive
[1]
  sensitivity of strain Str.pn.R to known antibiotics: sensitive

## CC1(C)S[C@@H]2[C@H](NC(=O)[C@H](N)c3ccc(O)cc3)C(=O)N2[C@H]1C(=O)O [amoxicillin]
[2]
  sensitivity of staphylococcus species R to known antibiotics: resistant

## CC[C@H]1OC(=O)[C@H](C)[C@@H](O[C@H]2C[C@@](C)(OC)[C@@H](O)[C@H](C)O2)[C@H](C)[C@@H](O[C@@H]2O[C@H](C)C[C@H](N(C)C)[C@H]2O)[C@](C)(O)C[C@@H](C)C(=O)[C@H](C)[C@@H](O)[C@]1(C)O [erythromycin]
[2]
  sensitivity of staphylococcus species R to known antibiotics: resistant
[1]
  sensitivity of strain Str.pn.R to known antibiotics: resistant
